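In this assay, cells in 96-well plates receive the compound at five concentrations for 48 hours. Endpoints are linearly interpolated between the surrounding concentrations. TGI: total growth inhibition.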
How the values were obtained:
Test in all cases: NCI anticancer screen, dose series, 48 h
[1] = test system: SK-MEL-5 melanoma
[2] = test system: LOX IMVI melanoma
[3] = test system: RPMI-8226 leukemia
[4] = test system: A549 NSCLC
[5] = test system: U251 CNS
[6] = test system: MDA-N
[7] = test system: HL-60(TB) leukemia
[8] = test system: CCRF-CEM leukemia
[9] = test system: OVCAR-8 ovarian
[10] = test system: PC-3 prostate
[11] = test system: ACHN renal
[12] = test system: SN12C renal
[13] = test system: TK-10 renal
[14] = test system: HT29 colon
[15] = test system: EKVX NSCLC
[16] = test system: HCT-116 colon
[17] = test system: IGROV1 ovarian
[18] = test system: RXF 393 renal
[19] = test system: NCI-H226 lung
[20] = test system: T-47D breast

Measured: TGI

O=S1(=O)OCCOS(=O)(=O)C1S(=O)(=O)c1ccc2ccccc2c1
not listed: [18] | [19] | [20]
> 100 µM: all other assays above

N#CC(C#N)=C1c2ccccc2C(=NN)c2ccccc21
> 63.9 µM: [11]
not listed: [2] | [4] | [7] | [15] | [16] | [20]
> 100 µM: all other assays above

COc1cc(C=O)cc(/C=N/n2c3ccccc3c3ccccc32)c1O
46.2 µM: [3]
99.7 µM: [18]
not listed: [1] | [6] | [17]
> 100 µM: all other assays above

O=c1[nH]nc(-c2ccccc2)n1Nc1ccccc1
not listed: [10]
> 100 µM: all other assays above

COc1ccc(/C=C2\CCC(CNc3ccc(S(N)(=O)=O)cc3)C2=O)cc1 (configuration not stated)
53.7 µM: [11]
42.2 µM: [10]
25.9 µM: [14]
23.8 µM: [2]
> 69.2 µM: [15]
22.9 µM: [16]
43.1 µM: [20]
35.4 µM: [9]
5.98 µM: [8]
35.9 µM: [12]
35.3 µM: [18]
39.2 µM: [5]
7.73 µM: [7]
> 100 µM: [4] | [19]
43.4 µM: [17]
31.8 µM: [1]
34.9 µM: [13]

COc1ccc(CCCCl)c(C2=NCCc3cc(OC)c(OC)cc32)c1
28.5 µM: [3]
59.4 µM: [1]
not listed: [2] | [6]
> 100 µM: all other assays above

N#C[C@@H](c1nc2ccccc2s1)c1ncccc1[N+](=O)[O-]
74.7 µM: [13]
20.6 µM: [9]
13.9 µM: [2]
> 31.6 µM: [18] | [6] | [11] | [12] | [15]
11.7 µM: [5]
87.8 µM: [19]
25 µM: [20]
14 µM: [16]
18.1 µM: [4] | [10]
37.3 µM: [1]

c1cncc(C2(c3cc4ccccc4[nH]3)COCO2)c1 (configuration not stated)
56.6 µM: [8]
not listed: [6] | [12]
> 100 µM: all other assays above

COC(=O)C1=C(C)NC(C)=C(C(=O)OC)C1c1ccccc1NO
48.2 µM: [16]
not listed: [6]
> 100 µM: all other assays above

O=C1/C(=c2\s/c(=C\c3ccccc3)c(=O)n2-c2ccccc2)SC(=S)N1c1ccccc1
89.4 µM: [19]
87.2 µM: [17]
81.1 µM: [5]
76.2 µM: [11]
not listed: [20]
> 100 µM: all other assays above

O=C(O)Cc1c(-c2ccc([N+](=O)[O-])cc2)c(=O)oc2cc(O)ccc12
83 µM: [15]
73.6 µM: [16]
74.1 µM: [9]
91.8 µM: [11]
88.8 µM: [8]
94.5 µM: [10]
39.4 µM: [7]
61.7 µM: [3]
33.3 µM: [1]
53.5 µM: [5]
not listed: [20]
> 100 µM: all other assays above

O=c1ccn2n1Cc1ccccc1C2
not listed: [6]
> 100 µM: all other assays above

CN1C2=C(CC3=C1CC(C)(C)CC3=O)C(=O)CC(C)(C)C2
not listed: [6] | [16] | [18] | [20]
> 100 µM: all other assays above

CN1Cc2cc3cc4c(cc3nc2N(C)C1)OCCO4
not listed: [7] | [20]
> 100 µM: all other assays above

C=C[C@@]1(C)CC[C@@H]2[C@@]3(C1)O[C@H]3CC1[C@](C)(C(=O)OC)CCC[C@@]12C (some centres not stated)
49.6 µM: [5]
65.6 µM: [3]
55.9 µM: [20]
58.4 µM: [17]
54.7 µM: [4]
28.1 µM: [16]
51.7 µM: [13]
> 100 µM: [10]
38.6 µM: [15]
56.8 µM: [6]
33 µM: [18]
27.1 µM: [14]
33.7 µM: [1]
29.5 µM: [11]
40.9 µM: [9]

C=CCNC(=O)N(CCCCC(NC(C)=O)C(=O)NCc1ccccc1)Cc1ccccc1 (configuration not stated)
not listed: [6] | [10] | [16] | [20]
> 100 µM: all other assays above

O=c1cc(-c2ccccc2)[nH]c2ccc(N3CCOCC3)cc12
> 35.8 µM: [5]
14.3 µM: [1]
> 91 µM: [11]
46.5 µM: [18]
0.253 µM: [19]
> 95.3 µM: [12]
not listed: [4] | [6] | [7] | [8] | [14]
> 100 µM: all other assays above

C/C(=C(/C)c1ccc(O)cc1)c1ccc(O)cc1
88.2 µM: [15]
71.6 µM: [3]
50 µM: [1]
81.4 µM: [7]
not listed: [2] | [20]
> 100 µM: all other assays above

BrC1=CCC23CC=C(Br)[C@H]4CC2(COC3)C[C@@H]1O4 (some centres not stated)
38.1 µM: [7]
79.5 µM: [8]
93.5 µM: [18]
not listed: [6] | [10] | [14] | [20]
> 100 µM: all other assays above

COC(=O)/C=C\COCC1C2CCC(=O)C21 (configuration not stated)
16.2 µM: [8]
not listed: [7] | [20]
> 25 µM: all other assays above

O=c1cc(-c2ccccc2)c2ccccc2[nH]1
99.8 µM: [19]
93.2 µM: [1]
not listed: [6] | [10] | [15] | [20]
> 100 µM: all other assays above

COc1ccc(/C=N/N=C(\N)NO)cc1O
not listed: [6] | [7] | [9] | [10] | [11] | [13] | [20]
> 100 µM: all other assays above

Cc1ccc(NCC(=O)N2CC(=O)Nc3ccccc32)c(C)c1
not listed: [6] | [10] | [17] | [20]
> 100 µM: all other assays above

CN1CCN(C(=S)N(C(=O)c2ccc(Cl)cc2)c2ccccc2)CC1
not listed: [8] | [10] | [15] | [16]
> 100 µM: all other assays above

O=C(O)c1cc(CC2Cc3cc4c(cc3C2=O)CCC4)cc2c1CCC2 (configuration not stated)
not listed: [1] | [6] | [18]
> 100 µM: all other assays above

CS(=O)(=O)OC1CCC2(C#N)CCC1C2=O (configuration not stated)
44.4 µM: [3]
not listed: [6] | [10] | [20]
> 100 µM: all other assays above

CC(C)=CC1C[C@H](C2CC=C3C2(C)CCC2[C@@]3(C)C(=O)CC3[C@]2(C)C=CC(=O)[C@]3(C)CO)CO1 (some centres not stated)
9.45 µM: [2]
63.2 µM: [12]
9.42 µM: [7]
10.2 µM: [16]
55.1 µM: [15]
29.5 µM: [17]
15.3 µM: [3]
8.71 µM: [8]
18.2 µM: [14]
> 24.4 µM: [9]
21.7 µM: [5]
52.4 µM: [4] | [13]
23.2 µM: [18]
25 µM: [1]
30.7 µM: [11]

[N-]=[N+]=NC(CCl)c1cn([C@H]2C[C@H](O)[C@@H](CO)O2)c(=O)[nH]c1=O (some centres not stated)
not listed: [6] | [10] | [20]
> 100 µM: all other assays above

Reference: PubChem BioAssay (NCI)
